From patent publication US7994160B2, “Pyridazine compounds as glycogen synthase kinase 3 inhibitors” (Abbott GmbH & Co. KG, priority 2005, dated 2011)
pIC50: −log10 of the molar value.

Columns and labels:
[1] = molecular target: human Glycogen Synthase Kinase-3 beta (hGSK-3β) (Homo sapiens, UniProt P49841); assay: Biochemical hGSK-3Beta assay (33P-ATP phosphorylation of biotinylated peptide substrate); conditions: 10 μM ATP, 30 minutes at room temperature, read-out: GSK-3β IC50
Procedure: Methods—Biochemical hGSK-3Beta Assay
Compounds were tested for their ability to inhibit human Glycogen Synthase Kinase-3 beta (hGSK-3β) to phosphorylate biotin-[…](pS)EDEEE. Compounds were incubated with 0.5 μCi 33P-ATP, 10 μM ATP, 0.0125 U hGSK-3β (Upstate cell signaling solutions) and 1 μM substrate (biotin-[…](pS)EDEEE) in 50 mM HEPES, 10 mM MgCl2, […], 1 mM DTT, 0.0075% Triton, 2% DMSO (total volume 50 μL) for 30 minutes at room temperature. The incubation was stopped by addition of an equal volume of 100 mM EDTA, 4M NaCl. 80 μL of this mixture was added to streptavidin-coated Flashplates (PerkinElmer). Following a wash step, 33P incorporation was quantified on a MicroBeta microplate liquid scintillation counter (PerkinElmer). IC50's were determined by fitting a sigmoidal dose-response curve to the counts obtained at the different concentrations in GraphPad Prism.

[2] = tested on: β-catenin-modulated gene transcription; assay: β-Catenin reporter-gene assay (LEF/TCF TOPFLASH/FOPFLASH luciferase); format: cell-based; conditions: human neuroblastoma cells, 24 h; symbols +/++/+++ not defined
Procedure: Methods—β-Catenin Reporter-Gene Assay
Compounds were tested for their ability to modulate β-catenin-modulated gene transcription in a LEF/TCF (T-cell factor) reporter gene assay. […] human neuroblastoma cells were transiently transfected with 80 ng/well TOPFLASH plasmid (Up-state cell signaling solutions) containing two sets of three copies of the TCF binding site upstream of the Thymidine Kinase minimal promoter and firefly Luciferase open reading frame or with 80 ng/well FOPFLASH plasmid (Upstate cell signaling solutions) containing three copies of a mutated TCF binding site upstream of the Thymidine Kinase minimal promoter and firefly Luciferase open reading frame. In addition all cells were transiently transfected with the 20 ng/well pRL-TK plasmid (Promega) containing the herpes simplex virus thymidine kinase promoter to provide low to moderate levels of Renilla Luciferase expression. Transfection medium was exchanged for serum-free medium containing the test substance and incubated for 24 h at 37 degreed C. The incubation was stopped and quantified using the Dual Glo Luciferase Assay (Promega) as indicated and quantified on a Pherastar reader (BMG).
Firefly Luciferase activity was normalised for Renilla Luciferase activity per well. Subsequently, the normalised TOPFLASH response was compared to the normalised FOPFLASH response, thus giving the LEF/TCF specific signal. […]

Chain of human Glycogen Synthase Kinase-3 beta (hGSK-3β) (P49841 whole entry): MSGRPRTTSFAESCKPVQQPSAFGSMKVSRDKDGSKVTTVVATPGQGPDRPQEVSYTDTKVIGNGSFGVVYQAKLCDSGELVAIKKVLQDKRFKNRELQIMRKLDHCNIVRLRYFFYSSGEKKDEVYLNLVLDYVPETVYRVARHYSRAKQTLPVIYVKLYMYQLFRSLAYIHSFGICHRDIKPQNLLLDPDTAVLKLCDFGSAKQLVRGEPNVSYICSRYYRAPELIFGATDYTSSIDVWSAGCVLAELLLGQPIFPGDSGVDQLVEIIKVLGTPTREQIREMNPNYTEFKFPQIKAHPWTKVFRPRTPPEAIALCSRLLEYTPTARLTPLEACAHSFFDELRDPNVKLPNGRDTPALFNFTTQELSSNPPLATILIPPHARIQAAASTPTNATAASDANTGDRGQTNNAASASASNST

O=C1Nc2cc([N+](=O)[O-])ccc2Nc2nnc(Cl)cc21 [Example 4, 2-Chloro-8-nitro-5,10-dihydro-3,4,5,10-tetraaza-dibenzo[a,d]cyclohepten-11-one]
pIC50 [1]: 6.20

NC(=O)c1cccc2c1Nc1ccccc1C(=O)N2 [Example 6, 11-Oxo-10,11-dihydro-5H-dibenzo[b,e][1,4]diazepine-6-carboxylic acid amide, reference compound]
pIC50 [1]: 4.24 | Cellular Activity in GSK-3β TOPFLASH assay [2]: INACTIVE

O=C1Nc2ncccc2Nc2nnc(Cl)cc21 [Example 7, 8-Chloro-5,10-dihydro-1,5,6,7,11-pentaaza-dibenzo[a,d]cyclohepten-11-one]
pIC50 [1]: 7.00

C=Cc1cc2c(nn1)Nc1ccccc1NC2=O [Example 10, 2-Vinyl-5,10-dihydro-3,4,5,10-tetraaza-dibenzo[a,d]cyclohepten-11-one]
pIC50 [1]: 7.35
